In ChEMBL document CHEMBL1131697, “Toxicity and osmoprotective activities of analogues of glycine betaine obtained by solid phase organic synthesis towards Sinorhizobium meliloti” (1999):

What was measured:
Assay type in all cases: functional
Sinorhizobium meliloti [1] = assay: Tested for effect on doubling time of growth of Sinorhizobium meliloti 102F34 in Lactate aspartate(LAS) minimal medium (with addition of NaCl)
Sinorhizobium meliloti [2] = assay: Maximal attenuance reached in the stationary phase was reported against Sinorhizobium meliloti 102F34 in Lactate aspartate(LAS) minimal medium (with addition of NaCl)
Sinorhizobium meliloti [3] = assay: Tested for effect on doubling time of growth of Sinorhizobium meliloti 102F34 in Lactate aspartate(LAS) minimal medium (without addition of NaCl)
[4] = Evaluated for substrate specificity of betaine uptake in salt-stressed Sinorhizobium meliloti. compound to substrate ratio 10:1
Sinorhizobium meliloti [5] = assay: Maximal attenuance reached in the stationary phase was reported against Sinorhizobium meliloti 102F34 in Lactate aspartate(LAS) minimal medium (without addition of NaCl)
[6] = Evaluated for substrate specificity of betaine uptake in salt-stressed Sinorhizobium meliloti. compound to substrate ratio 100:1
[7] = Evaluated for substrate specificity of betaine uptake in salt-stressed Sinorhizobium meliloti. compound to substrate ratio 1:1; set-up: unit not given here

Compound | DT (Sinorhizobium meliloti [1]) | Dmax (Sinorhizobium meliloti [2]) | DT (Sinorhizobium meliloti [3]) | Betaine uptake (substrate specificity) [4] | Dmax (Sinorhizobium meliloti [5]) | Substrate specificity of betaine uptake [6] | Ratio [7]
C[N+]1(CC(=O)O)CCCC1.[Cl-] | 11 h | 2.1 | 45 h | 61 | 0.6 | 95 | 20
C[N+]1(CC(=O)O)CCOCC1.[Cl-] | 13 h | 1.9 | 28 h | 7 | 1 | 43 | 1
CCCC[N+](C)(C)CC(=O)O.[Cl-] | 20 h | 0.9 | 6.4 h | 10 | 1.9 | 23 | 1
CC(C)[N+](C)(C)CC(=O)O.[Cl-] | 20 h | 0.9 | 6.9 h | 4 | 1.8 | 45 | 0
C[N+](C)(C)CC(=O)O [BETAINE] | 7 h | 2.1 | 5.5 h | 94 | 2 | 99 | 80
CC[N+](CC)(CC)CC(=O)O.[Cl-] | 18 h | 0.9 | 7.9 h | 4 | 1.8 | 27 | 0
C[S+](C)CC(=O)O.[Cl-] | 32 h | 0.5 | 35 h | 90 | 0.5 | 98 | 52
CC[N+](C)(CC)CC(=O)O.[Cl-] | 13 h | 2 | 9 h | 10 | 1.6 | 57 | 4
CC[N+](C)(C)CC(=O)O.[Cl-] | 11 h | 2 | 35 h | 79 | 0.7 | 96 | 35
